Experimental findings from patent US10329294B2, “Pyrazolopyrimidine inhibitors of IRAK4 activity” (MERCK SHARP & DOHME CORP., priority 2015, dated 2019) are described below.

What is called IC50 is the concentration that inhibits the measured activity by half.

In the experiment the target is IRAK4 (Homo sapiens (Human), UniProt Q9NWZ3). As to the kind of experiment: IRAK4 Kinase Assay. To be noted: IMAP fluorescence polarization, 0.5 nM GST tagged IRAK4, 100 μM ATP, 30 minutes at 25° C.; read-out: IRAK4 IC50. Format: biochemical.
Chain of IRAK4 (Q9NWZ3 whole entry): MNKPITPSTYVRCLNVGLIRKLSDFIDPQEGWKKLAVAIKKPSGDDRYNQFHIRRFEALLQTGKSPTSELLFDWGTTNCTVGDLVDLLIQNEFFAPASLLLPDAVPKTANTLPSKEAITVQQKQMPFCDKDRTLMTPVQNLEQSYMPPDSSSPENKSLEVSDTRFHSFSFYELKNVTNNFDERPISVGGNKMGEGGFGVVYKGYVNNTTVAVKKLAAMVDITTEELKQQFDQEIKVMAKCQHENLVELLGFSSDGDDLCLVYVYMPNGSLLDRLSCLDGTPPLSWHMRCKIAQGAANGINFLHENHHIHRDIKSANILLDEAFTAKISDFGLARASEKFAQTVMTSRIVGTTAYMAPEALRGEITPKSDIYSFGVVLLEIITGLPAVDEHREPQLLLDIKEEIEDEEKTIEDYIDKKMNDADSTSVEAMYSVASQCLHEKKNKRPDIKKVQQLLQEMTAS

Counter-ions that a name gives are not always drawn.

Protocol: The kinase activity of IRAK4 is determined by its ability to catalyze the phosphorylation of a fluorescent polypeptide substrate. The extent of phosphorylation is measured using the IMAP technology (Molecular Devices) where the phosphorylated fluorescent substrate binds to the large M(III)-based nanoparticles which reduces the rotational speed of the substrate and thus increases its fluorescent polarization (FP).
20 μL reaction mixture contains 10 mM TriHCl, pH 7.2, 0.5 nM GST tagged IRAK4 (SignalChem), 100 nM fluorescent peptide substrate (RP7030, Molecular Devices), 100 μM ATP, 1 mM DDT, 1 mM MgCl2, and 0.01% Tween 20. The reaction is initiated by the addition of ATP. After incubation for 30 minutes at 25° C., 60 μL of Progressive IMAP Reagent (Molecular Devices) is added to stop the reaction. Change in RP7030's FP is determined by a FP reader (Analyst HT, LJL BioSystems).

In the case of `Cn1cc(NC(=O)c2cnn3ccc(N[C@H]4CNCCC4(F)F)nc23)c(C(F)(F)F)n1` (single isomer, unassigned) [Example 243, 5-[(R or S)-(4,4-difluoropiperidin-3-yl)amino]-N-[1-methyl-3-(trifluoromethyl)-1H-pyrazol-4-yl]pyrazolo[1,5-a]pyrimidine-3-carboxamide trifluoroacetate], the IC50 was 0.5 nM.
Consider `Cn1cc(NC(=O)c2cnn3ccc(N4CCNCC4C(F)(F)F)nc23)c(C(F)(F)F)n1` (centres unmarked) [Example 215, N-[1-methyl-3-(trifluoromethyl)-1H-pyrazol-4-yl]-5-[2-(trifluoromethyl)piperazin-1-yl]pyrazolo[1,5-a]pyrimidine-3-carboxamide trifluoroacetate], for which the IC50 came out at 121 nM.
The result for `N[C@@H]1[C@H](Nc2ccn3ncc(C(=O)Nc4cn(CC(F)(F)F)nc4C(F)(F)F)c3n2)CCCC1(F)F` [Example 69, 5-{[(1R,2R)-2-amino-3,3-difluorocyclohexyl]amino}-N-[1-(2,2,2-trifluoroethyl)-3-(trifluoromethyl)-1H-pyrazol-4-yl]pyrazolo[1,5-a]pyrimidine-3-carboxamide trifluoroacetate] reads 927 nM; that for `Cn1cc(NC(=O)c2cnn3ccc(N[C@H]4CNCCC4(F)F)nc23)c(C(F)(F)F)n1` (single isomer, unassigned) [Example 245, 5-[(R or S)-(4,4-difluoropiperidin-3-yl)amino]-N-[1-methyl-3-(trifluoromethyl)-1H-pyrazol-4-yl]pyrazolo[1,5-a]pyrimidine-3-carboxamide trifluoroacetate], 8 nM.
For `N[C@@H]1[C@H](Nc2ccn3ncc(C(=O)Nc4ccsc4C(F)F)c3n2)CCCC1(F)F` [Example 170, 5-{[(1R,2R)-2-amino-3,3-difluorocyclohexyl]amino}-N-[2-(difluoromethyl)thiophen-3-yl]pyrazolo[1,5-a]pyrimidine-3-carboxamide], the 50% inhibitory concentration (IC50) was 560 nM.
For the compound `Cn1cc(NC(=O)c2cnn3ccc(N[C@@H]4CCCC(F)(F)[C@@H]4N)nc23)c(Cl)n1` [Example 150, 5-{[(1R,2R)-2-amino-3,3-difluorocyclohexyl]amino}-N-(3-chloro-1-methyl-1H-pyrazol-4-yl)pyrazolo[1,5-a]pyrimidine-3-carboxamide], the IC50 is 109 nM.
For `Cn1cc(NC(=O)c2cnn3ccc(N[C@H]4CCC(F)(F)C[C@H]4N)nc23)c(C(F)F)n1` (single isomer, unassigned) [Example 209, 5-{[(1S,2R)- or (1R,2S)-2-amino-4,4-difluorocyclohexyl]amino}-N-[3-(difluoromethyl)-1-methyl-1H-pyrazol-4-yl]pyrazolo[1,5-a]pyrimidine-3-carboxamide] the value was 1 nM; for `Cn1cc(NC(=O)c2cnn3ccc(N4CCC[C@@H](N)C4)nc23)c(C(F)(F)F)n1` [Example 32, 5-[(3R)-3-aminopiperidin-1-yl]-N-[1-methyl-3-(trifluoromethyl)-1H-pyrazol-4-yl]pyrazolo[1,5-a]pyrimidine-3-carboxamide], 3 nM; for `N#Cc1ccccc1NC(=O)c1cnn2ccc(N3CCNCC4(CC4)C3)nc12` [Example 267, N-(2-cyanophenyl)-5-(5,8-diazaspiro[2.6]non-5-yl)pyrazolo[1,5-a]pyrimidine-3-carboxamide trifluoroacetate], 351 nM.
As to `N#Cc1cscc1NC(=O)c1cnn2ccc(N[C@@H]3CCCC[C@@H]3N)nc12` [Example 39, 5-{[(1R,2S)-2-aminocyclohexyl]amino}-N-(4-cyanothiophen-3-yl)pyrazolo[1,5-a]pyrimidine-3-carboxamide trifluoroacetate], the IC50 came to 2 nM.
For `O=C(Nc1cscc1C(F)F)c1cnn2ccc(N3C[C@@H]4CC[C@H]3CN4)nc12` (single isomer, unassigned) [Example 154, 5-[(1S,4S)- or (1R,4R)-2,5-diazabicyclo[2.2.2]oct-2-yl]-N-[4-(difluoromethyl)thiophen-3-yl]pyrazolo[1,5-a]pyrimidine-3-carboxamide trifluoroacetate], the IC50 is 86 nM.
